Experimental data reported in PubChem BioAssay AID179 (DTP/NCI, 2004).
Values joined by “and” are separate entries in the source; they are usually repeats but may differ in a detail not shown here. Equal entries are not always repeated. Active and inactive are the calls of the source.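 The calls were made as follows: active = compounds giving half or more protection of infected cells from virus-caused growth loss, again on retest; inactive = the rest.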 Where a SMILES comes first, the peptide text is derived from it.

System: CEM cells HIV-1 protection, formazan growth assay
Assay: NCI AIDS Antiviral Assay
Settings: for IC50: measured here: growth of uninfected CEM cells
Method in brief: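 Five concentrations of each compound were applied to infected and uninfected human CEM cells. Protection from HIV-1 was judged from growth measured with a soluble formazan assay.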

| Structure (SMILES) | EC50 [µM] | IC50 | outcome |
| --- | --- | --- | --- |
| CC(=O)Nc1ccccc1S(=O)(=O)c1ccccc1 | 302 | 324 µM |  |
| Cc1ccc(C)c(N=C2NC(=O)C(CC(=O)Nc3ccc(Cl)cc3Cl)S2)c1 (configuration not stated) | > 44.7 | 19.5 µM |  |
| CCOC(=O)c1c2ccc(/C=C/c3ccccn3)ccc-2c(C(=O)OCC)c1N | > 6.76 | > 6.76 µM |  |
| CN(C)CCCNC(=O)c1cc(NC(=O)c2cc(NC(=O)c3cc(NC(=O)c4cccc(C(=O)Nc5cc(C(=O)Nc6cc(C(=O)Nc7cc(C(=O)NCCCN(C)C)n(C)c7)n(C)c6)n(C)c5)c4)cn3C)cn2C)cn1C | > 100 | > 100 µM |  |
| N=C1SC2CCCCCCC2S1 (configuration not stated) | > 200 | > 200 µM |  |
| O/N=C1/COC(C(F)(F)F)(C(F)(F)F)C1 | > 200 | > 200 µM |  |
| O=C1C=C(N2CCN(CCO)CC2)C(=O)c2c(N3CCN(CCO)CC3)cc(N3CCN(CCO)CC3)nc21 | > 158 | > 158 µM |  |
| c1ccc(-c2nnc(-c3nsc4ccccc34)o2)cc1 | > 18.6 | > 18.6 µM |  |
| CCN(CC)CC(C(=O)Nc1c(C)cccc1C)/C(C)=N\NC(=O)C[N+](C)(C)C (configuration not stated) | > 40.7 | > 40.7 µM |  |
| O=C(/C=C(\O)c1ccc(Cl)cc1)C(=O)NN=C(c1ccccc1)c1ccccc1 | > 200 | 16.6 µM |  |
| Cc1n(-c2ccccc2)c2c([n+]1Cc1ccc([N+](=O)[O-])cc1)C(=O)c1ccccc1C2=O | > 70.8 | 3.63 µM |  |
| O=C(c1ccccc1)N1N=C(C(F)(F)F)CC1(O)C(F)(F)F (configuration not stated) | > 200 | > 200 µM |  |
| c1c[nH]c(C23C4C5C6C4C2C6C53)n1 (configuration not stated) | > 200 | > 200 µM |  |
| COC(=O)CCC(=O)CC(=O)C(=O)Nc1ccc(F)cc1 | > 45.7 | > 45.7 µM |  |
| CCn1c(CSc2nc(-c3ccccc3)c(-c3ccccc3)[nH]2)n[nH]c1=S | > 91.2 | 52.5 µM |  |
| CN(C)c1ccc(C(C=C2c3ccccc3Sc3ccccc32)=C(C#N)C#N)cc1 |  |  | inactive |
| CN(NC(=O)/C(=C/c1cc(Cl)cc(Cl)c1O)NC(=O)c1ccccc1)c1cnn(-c2ccccc2)c(=O)c1Cl | > 200 | 37.2 µM |  |
| O=C1C2=C(CCCCC2)C2CCCCC12O (configuration not stated) | > 200 | > 200 µM |  |
| OC1(c2ccc(Cl)cc2)c2ccccc2C2=NCc3ccccc3CN21 (configuration not stated) | > 200 | 33.1 µM |  |
| COc1ccccc1N1C(=O)CC(=O)N(C(=O)CCCCCCCCC(=O)N2C(=O)CC(=O)N(c3ccccc3OC)C2=S)C1=S | > 200 | 95.5 µM |  |
| Nc1c(N=Nc2ccc(/C=C/c3ccc(N=Nc4cc(S(=O)(=O)O)c5ccccc5c4N)cc3S(=O)(=O)O)c(S(=O)(=O)O)c2)cc(S(=O)(=O)O)c2ccccc12 | 8.71 | 77.6 µM |  |

| Structure (SMILES) | EC50 [µM] | IC50 | outcome |
| --- | --- | --- | --- |
| N#C/C(=C\c1ccc2[nH]ccc2c1)C(=O)NCCCCNC(=O)/C(C#N)=C/c1ccc2[nH]ccc2c1 | > 7.94 | > 7.94 µM |  |
| O=C(O)Cn1ccc(=O)c2cc([N+](=O)[O-])ccc21 | > 200 | > 200 µM |  |
| O=C(Nc1nc(C23CC4CC(CC(C4)C2)C3)cs1)c1cc2c(ccc3ccccc32)oc1=O | > 200 | > 200 µM |  |
| CC1C2CC(CC2(C)O)C1(C)C (configuration not stated) | > 562 | > 562 µM |  |
| Nc1c(-c2nc3ccccc3s2)[n+]([O-])c2ccccc2[n+]1[O-] |  |  | inactive |
| COc1cc(/C=C2/C(=O)N=C(NC(C)=O)N2C)ccc1OC(C)=O | > 200 | > 200 µM |  |
| CCCCSc1ccc2n(C)c(-c3ccc(/C=N\NC(=O)c4ccc(C(=O)N/N=C\c5ccc(-c6c[n+]7cc(SCCCC)ccc7n6C)cc5)cc4)cc3)c[n+]2c1 | 3.24 | 6.31 µM |  |
| CCCC(C(=O)OC)C1N=C(NC#N)N(Cc2ccccc2)C1=O (configuration not stated) | > 110 | > 110 µM |  |
| CC(C)(C)CC(C)(C)c1ccc(OCCO)cc1 |  |  | inactive |
| O=C(CCC(=O)Nc1ccc(Cl)c(Cl)c1)CC(=O)c1ccc(Cl)cc1 |  |  | inactive |
| COC(=O)Cc1cc(O)c(C/C=C(\C)CC/C=C(\C)C(O)C(=O)C=C(C)C)cc1O (configuration not stated) | > 15.8 | 9.33 µM |  |
| CCOC(=O)/C(C#N)=C/c1ccc2c(-c3c(OCC)ccc4cc(/C=C(\C#N)C(=O)OCC)ccc34)c(OCC)ccc2c1 | > 200 | > 200 µM |  |
| CN1CCCOC(c2ccc(Cl)cc2)O1 (configuration not stated) | > 200 | > 200 µM |  |
| C=CC1(C)CCC2C(=CCC3C2(C)CC(O)C(O)C3(C)COC2OC(C(=O)O)C(O)C(O)C2O)C1 (configuration not stated) (tested in a mixture with another compound) | > 100 | > 100 µM |  |
| COC(=O)c1cc(C#N)[nH]c1-c1cccs1 | > 200 | 40.7 µM |  |
| CCCC1(c2ccccc2)Oc2ccccc2-n2cccc2C1=O (configuration not stated) | > 200 | 40.7 µM |  |
| Cn1c(C(=O)c2cc3ccccc3n2C)cc2ccccc21 | > 18.2 | > 18.2 µM |  |
| CCCC1OP(=O)(N2CC(C)N(P3(=O)OCC(CC)C(CCC)O3)CC2C)OCC1CC (configuration not stated) | > 200 | > 200 µM |  |
| Nn1ccc(=O)c2c1-c1ccccc1C(c1ccccc1)c1ccccc1-2 (configuration not stated) | > 200 | 24 µM |  |
| COc1ccc(-c2cc3ccccc3oc2=O)cc1OC | > 200 | 41.7 µM |  |
| Fc1ccc(NC(=S)N/N=C\c2c(Cl)cccc2Cl)cc1 | > 275 | > 275 µM |  |

| Structure (SMILES) | EC50 [µM] | IC50 | outcome |
| --- | --- | --- | --- |
| COc1cc(O)c(C(=O)/C=C/c2ccc(Cl)c(Cl)c2)c(OC)c1 | > 200 | 3.02 µM |  |
| COc1cc(C(Cc2ccnc3ccccc23)Cc2ccnc3ccccc23)ccc1N(C)C | > 16.2 | 3.16 µM |  |
| COc1ccc(/C=C/C(=O)c2cccc(C(=O)/C=C/c3ccc(OC)c(OC)c3)n2)cc1OC | > 200 | 110 µM |  |
| COc1ccc(COC(=O)NNC(=O)C2CSC(c3ccccc3)N2C(C)=O)cc1 (configuration not stated) | > 200 | 174 µM |  |
| Cc1cc(=O)c2c(ccc3c(=O)cc(C)[nH]c32)[nH]1 | > 257 | 240 µM |  |
| Fc1ccccc1C1SCc2nc3cc4ccccc4cc3n21 (configuration not stated) | > 200 | 75.9 µM |  |
| NC(=O)c1nc2ccccc2nc1Nc1ccc(Cl)cc1Cl | > 1.58 | > 1.58 µM |  |
| C=CN1C(=O)OC(c2ccccc2)C1c1ccccc1 (configuration not stated) | > 93.3 | > 79.4 µM and 30.2 µM |  |
| O=C(NC(CO)C(=O)N[C@H]1c2ccsc2C(=O)[C@H]1O)OCc1ccccc1 (some centres not stated) |  |  | inactive |
| Nc1c(-c2nc3ccccc3[nH]2)sc(=S)n1-c1ccccc1 | > 11.5 | > 11.5 µM |  |
| Cc1ccc2c(c1)nc1sc(C)cc(=O)n12 | > 200 | > 200 µM |  |
| O=C(Cc1nc2ccccc2o1)C(=O)Nc1cccc(Cl)c1 |  |  | inactive |
| CSc1nc2c(=O)oc(-c3ccc([N+](=O)[O-])cc3)nc2s1 | > 151 | 5.37 µM |  |
| Oc1cc(-c2ccc(Cl)cc2)cn2c1nc1ccccc12 | > 200 | 9.77 µM |  |
| CCCC(C)(O)CN (configuration not stated) |  |  | inactive |
| COc1cccc2c(NNc3ccccc3)c3ccc([N+](=O)[O-])cc3nc12 | > 22.4 | 16.2 µM |  |
| N#CC(NNC(=O)c1ccccc1O)c1cccc(O)c1 (configuration not stated) | > 6.31 | 0.562 µM |  |
| CCOC(=O)C1=C(C)C(C(=O)OC)/C(=C/c2cccc3cccnc23)C1=O (configuration not stated) | > 200 | 10.7 µM |  |
| COc1ccc(C[C@H]2COC(=O)[C@@H]2Cc2ccc(O)c(O)c2)cc1OC | > 200 | 19.5 µM |  |
| Cc1ccc(N/N=c2/ccc(=O)/c(=N\Nc3ccc(S(=O)(=O)O)cc3)c2=O)c(C)c1 | > 200 | > 200 µM |  |
| O=C(O)CCCCCCCCCCOc1ccc(I)cc1 | > 200 | 28.2 µM |  |

| Structure (SMILES) | EC50 [µM] | IC50 | outcome |
| --- | --- | --- | --- |
| COc1cc2c3c(c1)ncn3C(=O)C(c1ccccc1)S2 (configuration not stated) | > 200 | 87.1 µM |  |
| Fc1ccc(OCc2ccc3nc(-c4ccccc4)c(Cl)nc3c2)cc1 | > 100 | > 100 µM |  |
| COc1ccc(C(OCC2OC(N3CN4C(=NC3=O)N(C(=O)C(C)C)C(OC(=O)C(C)C)C4OC(=O)C(C)C)CC2OP(OC)N(C(C)C)C(C)C)(c2ccccc2)c2ccc(OC)cc2)cc1 (configuration not stated) | > 100 | > 100 µM |  |
| CCOC(=O)c1cc2c3c(c(O)c(OC)c2s1)N(C(=O)c1cc2c4c(c(OC)c(OC)c2s1)N(C(=O)OC(C)(C)C(Cl)(Cl)Cl)CC4)CC3 |  |  | inactive |
| O=C(CCc1nc(=S)[nH][nH]1)Nc1ccc(Cl)c(Cl)c1 |  |  | inactive |
| N.N.N.N.N.O=C([O-])c1nn[n-]n1.[Cl-].[Co+3] | > 16.2 | > 16.2 µM |  |
| CC1=NN(C(=O)CC(=O)Nc2cccc(Cl)c2)C(=O)C1N=Nc1ccc(S(N)(=O)=O)cc1 (configuration not stated) | > 55 | > 55 µM |  |
| CCC(C)C(NC(=O)CNC(=O)C(C)NC(=O)CNC(=O)C(NC(=O)C(NC(=O)C(CO)NC(=O)C(Cc1cnc[nH]1)NC(=O)C(N)CCCCN)C(C)CC)C(C)CC)C(=O)NC(CCCCN)C(=O)NC(CCCCN)C(=O)NC(CCCN=C(N)N)C(=O)NC(Cc1ccccc1)C(=O)NC(CC(C)C)C(=O)NC(CCC(N)=O)C(=O)O (configuration not stated) (H-KHSIIGAGIKKRFLQ-OH; configuration not given here) |  |  | inactive |
| NC(CSSCC(N)C(=O)NCC(=O)O)C(=O)NCC(=O)O (configuration not stated) | > 708 |  |  |
| COC(=O)[C@@H]1C=C[C@H](NC(C)=O)C1 |  |  | inactive |
| CC(=O)C1=C(C)NC(C)=C(C(C)=O)C1c1cccc([N+](=O)[O-])c1 | 182 | > 200 µM |  |
| Nc1nc(Cl)cc(OCC2(CO)CC2)n1 | > 200 | > 200 µM |  |
| S=c1sc2ccccc2n1CCSSCCn1c(=S)sc2ccccc21 | > 200 | 191 µM |  |
| c1ccc(CNCCCCNCCCNCc2ccccc2)cc1 | > 200 | 13.8 µM |  |
| COC(=O)CNC(=O)CCSc1nnc(COc2ccc(Cl)cc2)n1-c1ccccc1 | > 200 | 33.9 µM |  |
| O=C1OCCCCOC(=O)c2ccccc2SSc2ccccc21 | > 200 | > 200 µM |  |
| COC(=O)c1nn(C(=N)c2ccc(Cl)cc2)c2c1CCC2 | > 813 | > 813 µM |  |
| COc1ccc(NC(=O)/C(Cc2nc3ccccc3[nH]c2=O)=N\O)c(OC)c1 |  |  | inactive |
| O=c1[nH]c2cc(Cl)ccc2nc1/C(=N\O)C(O)c1ccc([N+](=O)[O-])cc1 (configuration not stated) |  |  | inactive |
| COc1ccc(C)cc1C1CCC(=O)O1 (configuration not stated) | > 1200 | > 1200 µM |  |
